Results reported in patent publication US20110039721A1, “METHOD FOR PREDICTION ABOUT CARCINOGENICITY OF SUBSTANCE IN RODENT” (Chemicals Evaluation and Research Institute, priority 2007, published 2011).

Tested on: mRNA expressed from the genes (A) to (D) in rat liver
Assay: Behavior of genes (mRNA expression level, oligo-DNA microarray) in rat liver after 28-day oral administration
Assay type: in vivo
Settings: mRNA vs vehicle control group
Description: A test solution was prepared by dissolving each of the carcinogens and the non-carcinogens shown in Tables 2 to 6 in the corresponding solvent shown in Tables 2 to 6. Each of the thus prepared test solutions and the solvents used for the preparation was administered by oral gavage to rats in each group. As the rats, male rats (F344 SPF rats) at 5 weeks of age obtained from Charles River Laboratories Japan, Inc. were used. The animals were divided into groups, each containing four individuals. The volume of the solvent administered to the vehicle control group was set to the same volume as that of the test solution administered to the carcinogen administration group or the non-carcinogen administration group. The administration of the test solution or the solvent was performed once daily for 28 days. Apiece was excised from the liver of each of the rats after a lapse of 28 days from the initiation of the administration, and the total RNA was extracted and purified.
The expression level of mRNA was compared between each of the chemical substance administration groups and the corresponding vehicle control group, and genes that satisfy the requirements described in (A) to (D) were selected, respectively.
The case where the expression level of mRNA in the carcinogen administration group or the non-carcinogen administration group is 1.5 times or more or 1/1.5 or less of the expression level of the corresponding mRNA expressed in the control group was determined to be significant. In this connection, the determination as to whether or not the change is significant was performed by taking into consideration the direction of increase or decrease in the expression level. In the case where the direction of increase or decrease is different as compared with the case where another carcinogen was administered, the change was determined to be not significant.

[1] = gene group (A), Unigene No. Rn.167075
[2] = gene group (C), Unigene No. Rn.120914

SMILES: O=[N+]([O-])c1cc[n+]([O-])c2ccccc12 [TS049, 4-Nitroquinoline-1-oxide]
- Behavior of gene caused by administration of chemical substance, Gene No. 4846 (gene group (A), Unigene No. Rn.144554): −
- Behavior of gene caused by administration of chemical substance, Gene No. 2026 [1]: −
- Behavior of gene caused by administration of chemical substance, Gene No. 4218 [1]: −
- Behavior of gene caused by administration of chemical substance, Gene No. 6182 (gene group (A), Unigene No. Rn.5834): −
- Behavior of gene caused by administration of chemical substance, Gene No. 5600 (gene group (A), Unigene No. Rn.9836): −
- Behavior of gene caused by administration of chemical substance, Gene No. 1494 (gene group (B), Unigene No. Rn.1430): −
- Behavior of gene caused by administration of chemical substance, Gene No. 2045 (gene group (B), Unigene No. Rn.19329): −
- Behavior of gene caused by administration of chemical substance, Gene No. 2203 (gene group (B), Unigene No. Rn.21240): −
- Behavior of gene caused by administration of chemical substance, Gene No. 533 (gene group (C), Unigene No. Rn.106184): −
- Behavior of gene caused by administration of chemical substance, Gene No. 725 (gene group (C), Unigene No. Rn.108075): −
- Behavior of gene caused by administration of chemical substance, Gene No. 1163 (gene group (C), Unigene No. Rn.11766): −
- Behavior of gene caused by administration of chemical substance, Gene No. 4973 (gene group (C), Unigene No. Rn.118529): −
- Behavior of gene caused by administration of chemical substance, Gene No. 4095 (gene group (C), Unigene No. Rn.119024): −
- Behavior of gene caused by administration of chemical substance, Gene No. 1334 [2]: −
- Behavior of gene caused by administration of chemical substance, Gene No. 6620 [2]: −
- Behavior of gene caused by administration of chemical substance, Gene No. 6303 (gene group (C), Unigene No. Rn.123063): −
- Behavior of gene caused by administration of chemical substance, Gene No. 5878 (gene group (C), Unigene No. Rn.143213): −
- Behavior of gene caused by administration of chemical substance, Gene No. 1131 (gene group (C), Unigene No. Rn.144946): −
- Behavior of gene caused by administration of chemical substance, Gene No. 1562 (gene group (C), Unigene No. Rn.14744): −
- Behavior of gene caused by administration of chemical substance, Gene No. 1741 (gene group (C), Unigene No. Rn.1647): −
- Behavior of gene caused by administration of chemical substance, Gene No. 893 (gene group (C), Unigene No. Rn.164817): −
- Behavior of gene caused by administration of chemical substance, Gene No. 6026 (gene group (C), Unigene No. Rn.167685): −
- Behavior of gene caused by administration of chemical substance, Gene No. 154 (gene group (C), Unigene No. Rn.185941): −
- Behavior of gene caused by administration of chemical substance, Gene No. 1993 (gene group (C), Unigene No. Rn.18728): −
- Behavior of gene caused by administration of chemical substance, Gene No. 813 (gene group (C), Unigene No. Rn.201760): −
- Behavior of gene caused by administration of chemical substance, Gene No. 2494 (gene group (C), Unigene No. Rn.23969): −
- Behavior of gene caused by administration of chemical substance, Gene No. 2546 (gene group (C), Unigene No. Rn.24561): −
- Behavior of gene caused by administration of chemical substance, Gene No. 3776 (gene group (C), Unigene No. Rn.43232): −
- Behavior of gene caused by administration of chemical substance, Gene No. 3929 (gene group (C), Unigene No. Rn.4620): −
- Behavior of gene caused by administration of chemical substance, Gene No. 1119 (gene group (C), Unigene No. Rn.9757): −
- Behavior of gene caused by administration of chemical substance, Gene No. 6742 (gene group (C), Unigene No. Rn.9779): −
- Behavior of gene caused by administration of chemical substance, Gene No. 5634 (gene group (C), Unigene No. Rn.9862): −
- Behavior of gene caused by administration of chemical substance, Gene No. 5726 (gene group (D), Unigene No. Rn.9939): +
